Holding throughout (conditions): Canis lupus familiaris
Assay [1] has as its system Canis familiaris. In words: Beta-adrenergic blocking activity in anesthetized dog, by the inhibition of isoproterenol -induced bronchodilatation after iv administration; No effect at dose up to 1 to 3 mg/kg iv. It is filed as functional, organism-based.
Assay [2] relates to Canis familiaris. In words: Beta-adrenergic blocking activity in anesthetized dog, by the inhibition of isoproterenol -induced hypotension after iv administration; No effect at dose up to 1 to 3 mg/kg iv. Format: functional, organism-based.
The subject of assay [3] is Canis familiaris. In words: Beta-adrenergic blocking activity in anesthetized dog, by the inhibition of isoproterenol -induced tachycardia after iv administration; No effect at dose up to 1 to 3 mg/kg iv. It is filed as functional, organism-based.
Assay [4] relates to Canis familiaris. Put plainly: Beta-adrenergic blocking activity in anesthetized dog, by the inhibition of isoproterenol -induced bronchodilatation after iv administration. Format: functional.
In assay [5] the test system is Canis familiaris. In words: Beta-adrenergic blocking activity in anesthetized dog, by the inhibition of isoproterenol -induced hypotension after iv administration. It is filed as functional.
Assay [6] relates to Canis familiaris. In words: Beta-adrenergic blocking activity in anesthetized dog, by the inhibition of isoproterenol -induced tachycardia after iv administration. Format: functional.
In assay [7] the test system is Canis familiaris. Put plainly: Beta-adrenergic blocking activity in anesthetized dog, by the inhibition of isoproterenol -induced bronchodilatation after iv administration; No effect at dose up to 1 to 3 mg/kg. Format: functional, organism-based.

What is called ED50 is the dose at which the effect has come halfway, by size or by number of responders. Regarding `O=C(O)C(O)COc1nsnc1N1CCOCC1` (configuration not stated), the ED50 entry in assay [1], in assay [2] and in assay [3] was “No effect” in each case.
With `CC(C)(C)NC[C@H](O)COc1nsnc1N1CCOCC1` [TIMOLOL], the results for the ED50 in assay [4], in assay [5] and in assay [6] were 0.9 µg/kg, 2.8 µg/kg and 5.5 µg/kg, respectively.
As to `CC(C)(C)NCC(O)COc1nsnc1NCCO` (configuration not stated), the ED50 in assay [4] was found to be 5.4 µg/kg; in assay [5], 19.9 µg/kg; in assay [6], 38.1 µg/kg.
In the case of `CC(C)(C)NCC(O)COc1nsnc1N(CCO)CC(=O)O` (configuration not stated), the ED50 result in assay [7], in assay [2] and in assay [3] was “No effect” in each case.

Source of the values: ChEMBL document CHEMBL1121622, “Urinary metabolites of timolol from humans and laboratory animals. Syntheses and beta-adrenergic blocking activities” (1980).
